Results: patent US20180243211A1, “A PHARMACEUTICAL COMPOSITION FOR REDUCING LOCAL FAT AND USES THEREOF” (Caliway Biopharmaceuticals Co., Ltd., priority 2015, published 2018)

Legend:
[1] = system: mature adipocytes (differentiated 3T3-L1 cells); experiment: Experiment 10-2: apoptosis of mature adipocytes (annexin V/PI flow cytometry), resveratrol with hydrophilic drugs; format: cell-based; settings: 50 ppm total drug (complexes 20 ppm resveratrol + 30 ppm second drug), 24 hours; sterile water control 9.6±1.5%
Method: A sterile water control group cell culture medium, a resveratrol cell culture medium, a caffeine cell culture medium, a L-carnitine cell culture medium, a resveratrol-caffeine complex cell culture medium, and a resveratrol-L-carnitine complex cell culture medium were prepared as follows: The sterile water control group cell culture medium: Sterile water was mixed with a cell culture medium to prepare the sterile water control group cell culture medium, wherein, the volume ratio between the sterile water and the cell culture medium is 1:1000. The resveratrol cell culture medium: it is the same method as the preparation of the resveratrol cell culture medium in Experiment 9-2. The caffeine cell culture medium: caffeine (purchased from Sigma-Aldrich) was mixed with an appropriate amount of sterile water to obtain a caffeine solution. The caffeine solution was mixed with a cell culture medium to prepare the caffeine cell culture medium containing 50 ppm of caffeine, wherein, the volume ratio between the caffeine solution and the cell culture medium is 1:1000. The L-carnitine cell culture medium: L-carnitine (purchased from Sigma-Aldrich) was mixed with an appropriate amount of sterile water to obtain a L-carnitine solution. The L-carnitine solution was mixed with a cell culture medium to prepare the L-carnitine cell culture medium containing 50 ppm of L-carnitine, wherein, the volume ratio between the L-carnitine solution and the cell culture medium is 1:1000. The resveratrol-caffeine complex cell culture medium: resveratrol, caffeine, and an appropriate amount of sterile water were mixed to obtain a resveratrol-caffeine complex solution. […] Annexin V protein (purchased from eBioscience) and propidium iodide (PI; purchased from eBioscience) were mixed with the cells in each group for a period of time, and then the percentage of cells labeled by annexin V protein and PI in each group was analyzed by flow cytometry to assess the percentage of mature adipocytes undergoing apoptosis.

[2] = system: mature adipocytes (differentiated 3T3-L1 cells); experiment: Experiment 9-2: apoptosis of mature adipocytes (annexin V/PI flow cytometry), resveratrol with lipophilic drugs; format: cell-based; settings: 50 ppm total drug (complexes 20 ppm resveratrol + 30 ppm second drug), 24 hours; DMSO control 4.9±2.5%
Method: A DMSO control group cell culture medium, a resveratrol cell culture medium, a puerarin cell culture medium, a quercetin cell culture medium, a resveratrol-puerarin complex cell culture medium, and a resveratrol-quercetin complex cell culture medium were prepared as follows: The DMSO control group cell culture medium: DMSO was mixed with an appropriate amount of sterile water to obtain a 0.5% DMSO solution. The 0.5% DMSO solution was mixed with a cell culture medium (product name: Dulbecco's Modified Eagle Medium, purchased from Gibco) to prepare the DMSO control group cell culture medium, wherein, the volume ratio between the 0.5% DMSO solution and the cell culture medium is 1:1000. The resveratrol cell culture medium: resveratrol was mixed with an appropriate amount of 0.5% DMSO solution to obtain a resveratrol solution. The resveratrol solution was mixed with a cell culture medium (product name: Dulbecco's Modified Eagle Medium, purchased from Gibco) to prepare the resveratrol cell culture medium containing 50 ppm of resveratrol, wherein, the volume ratio between the resveratrol solution and the cell culture medium is 1:1000. The puerarin cell culture medium: puerarin (purchased from Sigma-Aldrich) was mixed with an appropriate amount of 0.5% DMSO solution to obtain a puerarin solution. The puerarin solution was mixed with a cell culture medium to prepare the puerarin cell culture medium containing 50 ppm of puerarin, wherein, the volume ratio between the puerarin solution and the cell culture medium is 1:1000. The quercetin cell culture medium: quercetin (purchased from Sigma-Aldrich) was mixed with an appropriate amount of 0.5% DMSO solution to obtain a quercetin solution. […] Annexin V protein (purchased from eBioscience) and propidium iodide (PI; purchased from eBioscience) were mixed with the cells in each group for a period of time, and then the percentage of cells labeled by annexin V protein and PI in each group was analyzed by flow cytometry to assess the percentage of mature adipocytes undergoing apoptosis. […]

SMILES: Cn1c(=O)c2c(ncn2C)n(C)c1=O [caffeine]
- percentage of apoptotic cells [1]: 6.9±1.1%

SMILES: C[N+](C)(C)C[C@H](O)CC(=O)[O-] [L-carnitine]
- percentage of apoptotic cells [1]: 5.2±1.2%

SMILES: O=c1c(O)c(-c2ccc(O)c(O)c2)oc2cc(O)cc(O)c12 [quercetin]
- percentage of apoptotic cells [2]: 5.9±2.6%

SMILES: O=c1c(-c2ccc(O)cc2)coc2c([C@@H]3O[C@H](CO)[C@@H](O)[C@H](O)[C@H]3O)c(O)ccc12 [puerarin]
- percentage of apoptotic cells [2]: 7.2±3.7%

SMILES: Oc1ccc(C=Cc2cc(O)cc(O)c2)cc1 [resveratrol]
- percentage of apoptotic cells [1]: 19.0±1.1%
- percentage of apoptotic cells [2]: 19.1±1.1%
